Consider 42 molecules from US10544143B2, “4-azaindole compounds” (BRISTOL-MYERS SQUIBB COMPANY, priority 2017, dated 2020).

One may read the IC50 as the concentration needed to halve the response being measured.

In one experiment the target is human TLR9 (Homo sapiens (Human), UniProt Q9NR96). The experiment is described as follows: TLR9 inhibition reporter assay (HEK-Blue SEAP).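 Note: SEAP driven by an IFN-β minimal promoter with NF-κB and AP-1 sites, read after 22 h, compounds dosed 0.05 nM–50 µM, inhibition scaled between agonist plus DMSO and reference-inhibitor wells.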 The following applies: ODN2006 5 nM. (In general: Reporter assays use an easily measured gene product as a stand-in for the process of interest.)
Sequence of human TLR9 (Q9NR96 26-1032): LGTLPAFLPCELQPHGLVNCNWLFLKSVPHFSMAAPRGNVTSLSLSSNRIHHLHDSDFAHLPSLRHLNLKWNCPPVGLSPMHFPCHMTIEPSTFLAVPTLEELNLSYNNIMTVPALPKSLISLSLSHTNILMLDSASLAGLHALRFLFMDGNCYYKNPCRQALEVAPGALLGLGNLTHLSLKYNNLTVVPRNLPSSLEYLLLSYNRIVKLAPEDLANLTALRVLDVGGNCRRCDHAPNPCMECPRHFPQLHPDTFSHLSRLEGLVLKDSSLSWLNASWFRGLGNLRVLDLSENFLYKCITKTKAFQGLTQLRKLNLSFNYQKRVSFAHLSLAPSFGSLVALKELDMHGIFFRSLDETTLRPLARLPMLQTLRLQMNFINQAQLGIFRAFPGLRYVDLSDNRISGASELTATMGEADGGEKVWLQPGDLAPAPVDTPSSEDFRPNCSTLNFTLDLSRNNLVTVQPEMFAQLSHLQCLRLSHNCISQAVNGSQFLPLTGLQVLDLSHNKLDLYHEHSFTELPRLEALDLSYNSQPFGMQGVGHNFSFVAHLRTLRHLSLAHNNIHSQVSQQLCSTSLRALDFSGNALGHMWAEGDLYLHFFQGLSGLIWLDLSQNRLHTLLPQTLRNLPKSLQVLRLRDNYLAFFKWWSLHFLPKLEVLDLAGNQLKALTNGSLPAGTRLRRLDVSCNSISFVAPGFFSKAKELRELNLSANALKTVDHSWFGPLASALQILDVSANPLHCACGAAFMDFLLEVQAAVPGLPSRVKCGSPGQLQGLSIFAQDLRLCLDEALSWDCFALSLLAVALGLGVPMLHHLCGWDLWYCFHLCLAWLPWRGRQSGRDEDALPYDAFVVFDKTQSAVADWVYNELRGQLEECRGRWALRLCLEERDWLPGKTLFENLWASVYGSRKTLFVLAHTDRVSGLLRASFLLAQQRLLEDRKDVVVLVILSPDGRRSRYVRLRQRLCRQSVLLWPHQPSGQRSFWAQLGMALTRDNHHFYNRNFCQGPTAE
In the next experiment the target is human TLR8 (Homo sapiens (Human), UniProt Q9NR97). Briefly: TLR8 inhibition reporter assay (HEK-Blue SEAP).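 Note: SEAP driven by IFN-β minimal promoter carrying NF-κB and AP-1 sites, compounds dosed 0.05 nM to 50 µM for 22 h, inhibition scaled between agonist-plus-DMSO and reference-inhibitor wells.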 The settings on record: R848 15.9 μM.
Sequence of human TLR8 (Q9NR97 27-1041): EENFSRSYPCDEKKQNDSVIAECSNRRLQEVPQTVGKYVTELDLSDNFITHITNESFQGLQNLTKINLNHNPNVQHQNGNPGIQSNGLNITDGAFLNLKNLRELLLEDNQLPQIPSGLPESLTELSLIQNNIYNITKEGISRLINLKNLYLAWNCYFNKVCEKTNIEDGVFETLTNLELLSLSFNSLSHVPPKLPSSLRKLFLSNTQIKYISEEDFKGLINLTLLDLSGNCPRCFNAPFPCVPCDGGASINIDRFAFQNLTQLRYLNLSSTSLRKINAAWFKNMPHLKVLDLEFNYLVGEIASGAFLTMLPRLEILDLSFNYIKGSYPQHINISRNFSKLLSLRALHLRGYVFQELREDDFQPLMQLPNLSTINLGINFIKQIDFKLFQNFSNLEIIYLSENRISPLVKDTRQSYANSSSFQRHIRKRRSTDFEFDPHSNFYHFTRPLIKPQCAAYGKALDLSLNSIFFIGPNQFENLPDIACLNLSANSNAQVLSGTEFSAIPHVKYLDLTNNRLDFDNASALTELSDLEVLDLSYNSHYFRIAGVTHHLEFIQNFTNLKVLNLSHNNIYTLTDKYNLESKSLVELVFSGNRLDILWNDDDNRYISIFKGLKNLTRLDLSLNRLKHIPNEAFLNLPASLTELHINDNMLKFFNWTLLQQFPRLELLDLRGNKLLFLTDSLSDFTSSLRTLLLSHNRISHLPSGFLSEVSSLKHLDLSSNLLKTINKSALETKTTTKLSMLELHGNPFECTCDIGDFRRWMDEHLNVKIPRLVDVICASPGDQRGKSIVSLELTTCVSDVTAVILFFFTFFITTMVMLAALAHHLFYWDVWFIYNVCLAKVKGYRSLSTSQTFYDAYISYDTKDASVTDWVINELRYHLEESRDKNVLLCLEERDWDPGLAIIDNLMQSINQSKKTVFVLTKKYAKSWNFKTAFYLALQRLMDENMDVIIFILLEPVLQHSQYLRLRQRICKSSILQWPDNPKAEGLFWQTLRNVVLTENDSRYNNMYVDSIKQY
Another experiment concerns the target human TLR7 (Homo sapiens (Human), UniProt Q9NYK1). The experiment is described as follows: TLR7 inhibition reporter assay (HEK-Blue SEAP). The following applies: HEK-Blue human TLR7 cells, gardiquimod 7.5 μM. Format: cell-based.
The mark [1] stands for this setting: read-out: TLR9 IC50, HEK-Blue human TLR9 cells.
[2] abbreviates: read-out: TLR8 IC50, HEK-Blue human TLR8 cells.
The mark [3] stands for this setting: TLR9 IC50, HEK-Blue human TLR9 cells.
Setting [4] is: TLR8 IC50, HEK-Blue human TLR8 cells.

Like-named read-outs stand apart in the source and are kept apart here.

Sequence of human TLR7 (Q9NYK1 27-1049): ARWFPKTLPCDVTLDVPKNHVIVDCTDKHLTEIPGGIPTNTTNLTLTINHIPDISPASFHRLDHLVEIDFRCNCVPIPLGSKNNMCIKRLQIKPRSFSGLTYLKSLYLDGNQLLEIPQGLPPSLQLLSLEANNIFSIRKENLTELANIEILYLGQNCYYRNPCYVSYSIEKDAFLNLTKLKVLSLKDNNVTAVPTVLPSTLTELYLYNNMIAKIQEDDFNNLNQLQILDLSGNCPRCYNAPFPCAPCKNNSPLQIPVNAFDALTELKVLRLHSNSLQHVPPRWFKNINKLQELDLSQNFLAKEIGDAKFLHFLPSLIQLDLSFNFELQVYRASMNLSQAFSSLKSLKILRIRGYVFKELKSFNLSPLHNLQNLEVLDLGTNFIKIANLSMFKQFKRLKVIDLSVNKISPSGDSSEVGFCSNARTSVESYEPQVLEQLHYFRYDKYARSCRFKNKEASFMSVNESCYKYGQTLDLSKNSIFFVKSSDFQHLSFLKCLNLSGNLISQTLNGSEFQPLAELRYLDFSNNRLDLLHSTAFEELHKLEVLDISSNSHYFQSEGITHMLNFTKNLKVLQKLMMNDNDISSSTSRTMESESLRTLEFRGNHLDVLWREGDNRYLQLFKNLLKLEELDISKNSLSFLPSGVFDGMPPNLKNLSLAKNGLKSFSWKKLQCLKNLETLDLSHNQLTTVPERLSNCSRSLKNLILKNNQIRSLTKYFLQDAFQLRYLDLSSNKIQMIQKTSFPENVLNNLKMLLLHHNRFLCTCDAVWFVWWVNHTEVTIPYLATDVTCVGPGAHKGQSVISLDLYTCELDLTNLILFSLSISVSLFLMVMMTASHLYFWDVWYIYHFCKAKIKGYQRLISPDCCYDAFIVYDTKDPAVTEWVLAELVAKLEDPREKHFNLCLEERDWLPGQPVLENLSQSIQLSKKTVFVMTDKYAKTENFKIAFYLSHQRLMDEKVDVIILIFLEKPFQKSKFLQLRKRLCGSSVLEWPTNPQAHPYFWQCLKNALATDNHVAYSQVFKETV
Protocol for human TLR8: HEK-Blue™-cells (Invivogen) overexpressing human TLR7, TLR8 or TLR9 receptors were used for screening inhibitors of these receptors using an inducible SEAP (secreted embryonic alkaline phosphatase) reporter gene under the control of the IFN-β minimal promoter fused to five NF-κB and AP-1-binding sites. Briefly, cells are seeded into Greiner 384 well plates (15000 cells per well for TLR7, 20,000 for TLR8 and 25,000 for TLR9) and then treated with test compounds in DMSO to yield a final dose response concentration range of 0.05 nM-50 μM. After a 30 minute compound pre-treatment at room temperature, the cells are then stimulated with a TLR7 ligand (gardiquimod at a final concentration of 7.5 μM), TLR8 ligand (R848 at a final concentration of 15.9 μM) or TLR9 ligand (ODN2006 at a final concentration of 5 nM) to activate NF-κB and AP-1 which induce the production of SEAP. After a 22 hour incubation at 37° C., 5% CO2, SEAP levels are determined with the addition of HEK-Blue™ Detection reagent (Invivogen), a cell culture medium that allows for detection of SEAP, according to manufacturer's specifications.

In the case of `Cc1c(-c2[nH]c3ccc(N4C[C@@H](C)N(C(=O)CCN5CCOCC5(C)C)C[C@@H]4C)nc3c2C(C)C)cn2ncnc2c1C` [Example 963], the half-inhibitory concentration (IC50) on human TLR9 (setting [1]) turned out to be 35300 nM; on human TLR8 (setting [2]), 1.9 nM; on human TLR7, 0.84 nM.
For `[2H]C([2H])([2H])NCCC(=O)N1C[C@H](C)N(c2ccc3[nH]c(-c4cn5ncnc5c(C)c4C)c(C(C)C)c3n2)C[C@H]1C` [Example 964], the values for the IC50 at human TLR9 (setting [3]), against human TLR8 (setting [4]) and against human TLR7 were 3100 nM, 0.25 nM and 0.53 nM, respectively.
Taken in the same sequence, the figures for `[2H]C([2H])([2H])N(CCC(=O)N1C[C@H](C)N(c2ccc3[nH]c(-c4cn5ncnc5c(C)c4C)c(C(C)C)c3n2)C[C@H]1C)C([2H])([2H])[2H]` [Example 965] were 6480 nM, 1.1 nM and 0.39 nM.
In the case of `Cc1c(-c2[nH]c3ccc(N4CCN(C(=O)CN(C)CC5CC5)CC4)nc3c2C(C)C)cn2ncnc2c1C` [Example 966], the results for the 50% inhibitory concentration (IC50) at human TLR9 (setting [1]), on human TLR8 (setting [2]) and against human TLR7 were 6020 nM, 1.3 nM and 2.4 nM, respectively.
Taken in the same sequence, the figures for `Cc1c(-c2[nH]c3ccc(N4CCN(C(=O)CN(C)C5COC5)CC4)nc3c2C(C)C)cn2ncnc2c1C` [Example 967] were 38700 nM, 1.2 nM and 7.9 nM.
On the same counts, the results for `Cc1c(-c2[nH]c3ccc(N4CCN(C(=O)CNC5CC5)CC4)nc3c2C(C)C)cn2ncnc2c1C` [Example 968] are 16400 nM, 0.69 nM and 1.9 nM.
As to `Cc1c(-c2[nH]c3ccc(N4CCN(C(=O)CN(C)CCO)CC4)nc3c2C(C)C)cn2ncnc2c1C` [Example 969], the half-maximal inhibitory concentration (IC50) on human TLR9 (setting [1]) amounted to 7180 nM; on human TLR8 (setting [2]), 0.12 nM; against human TLR7, 1.3 nM.
On the same counts, the results for `CCNCC(=O)N1CCN(c2ccc3[nH]c(-c4cn5ncnc5c(C)c4C)c(C(C)C)c3n2)CC1` [Example 970] are 10700 nM, 0.92 nM and 3.1 nM.
Consider `Cc1c(-c2[nH]c3ccc(N4CCN(C(=O)CN5CCC(CO)CC5)CC4)nc3c2C(C)C)cn2ncnc2c1C` [Example 971], for which the concentration for half-maximal inhibition (IC50) on human TLR9 (setting [1]) was determined as 9250 nM; on human TLR8 (setting [2]) it was 0.85 nM; against human TLR7 it was 3 nM.
`Cc1c(-c2[nH]c3ccc(N4C5CNCC4COC5)nc3c2C(C)C)cn2ncnc2c1C` [Example 972]: the values for the IC50 on human TLR9 (setting [1]), on human TLR8 (setting [2]) and on human TLR7 were 6920 nM, 3.1 nM and 3.3 nM, respectively.
Take `Cc1c(-c2[nH]c3ccc(N4CC5CCC(C4)N5)nc3c2C(C)C)cn2ncnc2c1C` [Example 973]: the concentration for half-maximal inhibition (IC50) at human TLR9 (setting [1]) amounted to 15800 nM; at human TLR8 (setting [2]), 1.7 nM; on human TLR7, 6.7 nM.
Taken in the same sequence, the figures for `Cc1c(-c2[nH]c3ccc(N4C[C@H]5CCC[C@H](C4)N5)nc3c2C(C)C)cn2ncnc2c1C` [Example 974] were 3920 nM, 0.71 nM and 1.1 nM.
On the same counts, the results for `Cc1c(-c2[nH]c3ccc(N4C[C@@H](C)N[C@@H](C)C4)nc3c2C(C)C)cn2ncnc2c1C` [Example 976] are 13400 nM, 0.96 nM and 2.5 nM.
On the same counts, the results for `Cc1c(-c2[nH]c3ccc(N4CCNC(C)C4C)nc3c2C(C)C)cn2ncnc2c1C` (stereo not drawn) [Example 977] are 8600 nM, 2.1 nM and 1.4 nM.
With `Cc1c(-c2[nH]c3ccc(N4C5CNCC4C5)nc3c2C(C)C)cn2ncnc2c1C` [Example 978], the IC50 on human TLR9 (setting [1]) turned out to be 11500 nM; at human TLR8 (setting [2]), 1.8 nM; against human TLR7, 11 nM.
On to `Cc1c(-c2[nH]c3ccc(N4[C@@H]5CC[C@H]4CNC5)nc3c2C(C)C)cn2ncnc2c1C` [Example 979], for which the IC50 on human TLR9 (setting [1]) came out at 4290 nM; at human TLR8 (setting [2]), 0.8 nM; at human TLR7, 1.1 nM.
Taken in the same sequence, the figures for `Cc1c(-c2[nH]c3ccc(N4C[C@H]5CC[C@@H]4CN5)nc3c2C(C)C)cn2ncnc2c1C` [Example 980] were 6270 nM, 2.3 nM and 2.2 nM.
Taken in the same sequence, the figures for `Cc1c(-c2[nH]c3ccc(N4C[C@H]5C[C@@H]4CN5)nc3c2C(C)C)cn2ncnc2c1C` [Example 981] were 3070 nM, 0.51 nM and 0.95 nM.
Taken in the same sequence, the figures for `Cc1c(-c2[nH]c3ccc(N4CCNCC45CC5)nc3c2C(C)C)cn2ncnc2c1C` [Example 982] were 32800 nM, 20 nM and 9.8 nM.
With `Cc1c(-c2[nH]c3ccc(N4CCN[C@@H](C(C)C)C4)nc3c2C(C)C)cn2ncnc2c1C` [Example 983], the half-maximal inhibitory concentration (IC50) at human TLR9 (setting [1]) is 6520 nM; on human TLR8 (setting [2]), 0.12 nM; against human TLR7, 0.82 nM.
On the same counts, the results for `Cc1c(-c2[nH]c3ccc(N4C[C@@H]5CC4CN5)nc3c2C(C)C)cn2ncnc2c1C` [Example 984] are 3430 nM, 0.85 nM and 1 nM.
Taken in the same sequence, the figures for `Cc1c(-c2[nH]c3ccc(N4C[C@H]5C[C@@H](C4)N5)nc3c2C(C)C)cn2ncnc2c1C` [Example 985] were 3900 nM, 1.1 nM and 1.6 nM.
`CCC[C@H]1CNCCN1c1ccc2[nH]c(-c3cn4ncnc4c(C)c3C)c(C(C)C)c2n1` [Example 986]: the IC50 on human TLR9 (setting [1]) stood at 2820 nM; at human TLR8 (setting [2]) it was 0.38 nM; against human TLR7, 0.63 nM.
For `Cc1c(-c2[nH]c3ccc(N4CCN[C@H](CO)C4)nc3c2C(C)C)cn2ncnc2c1C` [Example 987], the concentration for half-maximal inhibition (IC50) on human TLR9 (setting [1]) came out at 11300 nM; on human TLR8 (setting [2]) it was 0.5 nM; on human TLR7, 2.9 nM.
Taken in the same sequence, the figures for `CC[C@H]1CNCCN1c1ccc2[nH]c(-c3cn4ncnc4c(C)c3C)c(C(C)C)c2n1` [Example 988] were 3770 nM, 0.23 nM and 0.36 nM.
Take `Cc1c(-c2[nH]c3ccc(N4CCN[C@@H](C)C4)nc3c2C(C)C)cn2ncnc2c1C` [Example 989]: the concentration for half-maximal inhibition (IC50) at human TLR9 (setting [1]) stood at 7100 nM; at human TLR8 (setting [2]), 0.31 nM; against human TLR7 it was 0.69 nM.
With `Cc1c(-c2[nH]c3ccc(N4C[C@H](C)NC[C@H]4C)nc3c2C(C)C)cn2ncnc2c1C` [Example 990], the 50% inhibitory concentration (IC50) at human TLR9 (setting [1]) worked out at 6020 nM; at human TLR8 (setting [2]), 4 nM; at human TLR7, 0.8 nM.
On the same counts, the results for `Cc1c(-c2[nH]c3ccc(N4C[C@H](C)NC[C@@H]4C)nc3c2C(C)C)cn2ncnc2c1C` [Example 991] are 5990 nM, 0.32 nM and 0.27 nM.
In the case of `Cc1c(-c2[nH]c3ccc(N4CCNC[C@@H]4C(C)C)nc3c2C(C)C)cn2ncnc2c1C` [Example 992], the values for the IC50 at human TLR9 (setting [1]), on human TLR8 (setting [2]) and on human TLR7 were 6310 nM, 0.72 nM and 0.66 nM, respectively.
With `Cc1c(-c2[nH]c3ccc(N4C[C@@H](C)NC[C@H]4C)nc3c2C(C)C)cn2ncnc2c1C` [Example 993], the values for the IC50 on human TLR9 (setting [1]), at human TLR8 (setting [2]) and on human TLR7 were 7230 nM, 1.5 nM and 0.82 nM, respectively.
On to `Cc1c(-c2[nH]c3ccc(N4CCN[C@H](CO)C4)nc3c2C(C)C)cn2ncnc2c1C` [Example 994], for which the IC50 is 11800 nM at human TLR9 (setting [1]), 3.4 nM at human TLR8 (setting [2]) and 13 nM on human TLR7.
On the same counts, the results for `CNC1CCN(c2ccc3[nH]c(-c4cn5ncnc5c(C)c4C)c(C(C)C)c3n2)CC1` [Example 995] are 7020 nM, 0.48 nM and 0.56 nM.
Taken in the same sequence, the figures for `Cc1c(-c2[nH]c3ccc(N4CCC(N(C)CC5(C)COC5)CC4)nc3c2C(C)C)cn2ncnc2c1C` [Example 996] were 11000 nM, 0.4 nM and 1.3 nM.
Take `Cc1c(-c2[nH]c3ccc(N4CCC(N(C)CC(=O)N(C)C)CC4)nc3c2C(C)C)cn2ncnc2c1C` [Example 997]: the half-inhibitory concentration (IC50) on human TLR9 (setting [1]) is 13600 nM; at human TLR8 (setting [2]), 2.4 nM; against human TLR7, 2.4 nM.
Regarding `Cc1c(-c2[nH]c3ccc(N4CCC(N(C)CCS(C)(=O)=O)CC4)nc3c2C(C)C)cn2ncnc2c1C` [Example 998], the half-maximal inhibitory concentration (IC50) came out at 20000 nM on human TLR9 (setting [1]), 0.44 nM at human TLR8 (setting [2]) and 1.9 nM against human TLR7.
Taken in the same sequence, the figures for `Cc1c(-c2[nH]c3ccc(N4CC(NC(C)C)C4)nc3c2C(C)C)cn2ncnc2c1C` [Example 999] were 10500 nM, 2.1 nM and 7.5 nM.
For the molecule `COCCNC1CN(c2ccc3[nH]c(-c4cn5ncnc5c(C)c4C)c(C(C)C)c3n2)C1` [Example 1000], the IC50 came to 6440 nM at human TLR9 (setting [1]), 3.2 nM on human TLR8 (setting [2]) and 18 nM against human TLR7.
On to `Cc1c(-c2[nH]c3ccc(NCCN)nc3c2C(C)C)cn2ncnc2c1C` [Example 1001], for which the concentration for half-maximal inhibition (IC50) on human TLR9 (setting [1]) worked out at 11700 nM; on human TLR8 (setting [2]), 40 nM; at human TLR7 it was 70 nM.
Taken in the same sequence, the figures for `Cc1c(-c2[nH]c3ccc(NCCNC(=O)CN(C)C)nc3c2C(C)C)cn2ncnc2c1C` [Example 1002] were 1100 nM, 4.6 nM and 10 nM.
As to `Cc1c(-c2[nH]c3ccc(N4CC5(C4)CN(C(C)C)C5)nc3c2C(C)C)cn2ncnc2c1C` [Example 1003], the 50% inhibitory concentration (IC50) on human TLR9 (setting [1]) was 3160 nM; at human TLR8 (setting [2]), 3.7 nM; against human TLR7, 1.8 nM.
Taken in the same sequence, the figures for `Cc1c(-c2[nH]c3ccc(N4CC5(CN(CC(C)(C)O)C5)C4)nc3c2C(C)C)cn2ncnc2c1C` [Example 1004] were 2790 nM, 1.3 nM and 2.1 nM.
On the same counts, the results for `Cc1c(-c2[nH]c3ccc(N4CC5(CN(CCC(N)=O)C5)C4)nc3c2C(C)C)cn2ncnc2c1C` [Example 1005] are 1660 nM, 7.4 nM and 4.4 nM.
